In PMC11985910 (Nature Communications, 2025):
Where two headings read alike, the source gives them in different places.

Tests used:
MPO [1] = molecular target: T1, MPO (Homo sapiens, UniProt P05164); assay: MPO-catalysed H2O2 consumption, H2O2-specific electrode; type: biochemical
native human MPO = native human MPO (Homo sapiens, UniProt P05164); assay: MPO-catalysed H2O2 consumption, Amplex Red assay; type: biochemical
MAO-A, human = MAO-A, human (Homo sapiens, UniProt P21397); assay: MAO-A activity assay; type: biochemical; settings: compared to MPO or VAP-1
Chain of MAO-A, human (P21397 whole entry): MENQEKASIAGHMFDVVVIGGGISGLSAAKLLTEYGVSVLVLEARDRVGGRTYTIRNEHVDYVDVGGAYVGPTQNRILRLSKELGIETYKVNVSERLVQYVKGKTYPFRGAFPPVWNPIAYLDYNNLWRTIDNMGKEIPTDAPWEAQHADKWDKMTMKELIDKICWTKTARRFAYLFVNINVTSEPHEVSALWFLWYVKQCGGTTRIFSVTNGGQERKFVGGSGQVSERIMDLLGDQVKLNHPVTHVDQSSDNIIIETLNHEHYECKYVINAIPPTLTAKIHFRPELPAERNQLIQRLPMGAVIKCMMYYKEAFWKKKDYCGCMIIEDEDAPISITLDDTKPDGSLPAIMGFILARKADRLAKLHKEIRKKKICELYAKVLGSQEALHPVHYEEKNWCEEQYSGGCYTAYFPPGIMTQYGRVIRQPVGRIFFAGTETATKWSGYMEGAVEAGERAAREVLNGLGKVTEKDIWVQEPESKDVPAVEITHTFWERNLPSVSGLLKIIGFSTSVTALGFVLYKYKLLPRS

human DAO = human DAO (Homo sapiens, UniProt P19801); type: biochemical; settings: 30 μM, 40 min, 37 °C
Chain of human DAO (P19801 20-751): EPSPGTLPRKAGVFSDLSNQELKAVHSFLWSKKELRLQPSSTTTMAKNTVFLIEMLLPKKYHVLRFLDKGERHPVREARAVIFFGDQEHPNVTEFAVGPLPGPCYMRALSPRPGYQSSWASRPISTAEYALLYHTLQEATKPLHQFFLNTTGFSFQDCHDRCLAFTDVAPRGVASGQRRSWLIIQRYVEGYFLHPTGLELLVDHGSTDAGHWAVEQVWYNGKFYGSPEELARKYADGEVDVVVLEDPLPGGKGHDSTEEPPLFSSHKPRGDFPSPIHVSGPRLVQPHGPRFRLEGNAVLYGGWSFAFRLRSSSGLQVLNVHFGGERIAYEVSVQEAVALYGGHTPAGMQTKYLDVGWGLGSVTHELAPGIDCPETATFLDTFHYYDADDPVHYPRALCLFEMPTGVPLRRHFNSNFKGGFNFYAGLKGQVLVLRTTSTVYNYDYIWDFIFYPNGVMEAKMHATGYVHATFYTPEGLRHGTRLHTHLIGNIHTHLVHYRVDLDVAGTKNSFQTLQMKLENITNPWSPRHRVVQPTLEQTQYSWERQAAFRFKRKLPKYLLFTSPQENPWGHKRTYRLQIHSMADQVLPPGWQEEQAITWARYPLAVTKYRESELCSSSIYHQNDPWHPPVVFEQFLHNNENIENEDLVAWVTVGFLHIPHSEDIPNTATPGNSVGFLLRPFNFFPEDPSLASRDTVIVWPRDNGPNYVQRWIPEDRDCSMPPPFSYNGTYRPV

in vivo = type: in vivo, C57Bl/6J mice; settings: mouse
[2] = test system: thioglycolate broth-induced peritoneal leucocyte infiltration; assay: Peritonitis leucocyte trafficking model; type: in vivo, mouse; settings: 6 h; oral SNT-8370 60, verdiperstat 60, PXS-4707 6 mg/kg
[3] = test system: λ-carrageenan-induced leucocyte infiltration and oedema; assay: Carrageenan air pouch model; type: in vivo, mouse; settings: for leucocyte influx into the air pouch at 4-h: oral SNT-8370 30, verdiperstat 15, PXS-4707 6, dexamethasone 10 mg/kg
[4] = test system: LPS-induced lung leucocyte infiltration; assay: Acute lung injury; type: in vivo, mouse; settings: 6 h post-LPS; oral SNT-8370 30, verdiperstat 30, PXS-4707 10 mg/kg
[5] = test system: myocardial ischaemia/reperfusion injury; assay: Myocardial infarction; type: in vivo, rat; settings: 60 mg/kg oral twice daily, 4 weeks
MPO [6] = molecular target: T1, MPO; assay: MPO LDL lipid peroxidation assay; type: biochemical
recombinant human VAP-1 = recombinant human VAP-1 (Homo sapiens, UniProt Q16853); type: biochemical; settings: 30 μM, 40 min, 37 °C
Chain of recombinant human VAP-1 (Q16853 34-763): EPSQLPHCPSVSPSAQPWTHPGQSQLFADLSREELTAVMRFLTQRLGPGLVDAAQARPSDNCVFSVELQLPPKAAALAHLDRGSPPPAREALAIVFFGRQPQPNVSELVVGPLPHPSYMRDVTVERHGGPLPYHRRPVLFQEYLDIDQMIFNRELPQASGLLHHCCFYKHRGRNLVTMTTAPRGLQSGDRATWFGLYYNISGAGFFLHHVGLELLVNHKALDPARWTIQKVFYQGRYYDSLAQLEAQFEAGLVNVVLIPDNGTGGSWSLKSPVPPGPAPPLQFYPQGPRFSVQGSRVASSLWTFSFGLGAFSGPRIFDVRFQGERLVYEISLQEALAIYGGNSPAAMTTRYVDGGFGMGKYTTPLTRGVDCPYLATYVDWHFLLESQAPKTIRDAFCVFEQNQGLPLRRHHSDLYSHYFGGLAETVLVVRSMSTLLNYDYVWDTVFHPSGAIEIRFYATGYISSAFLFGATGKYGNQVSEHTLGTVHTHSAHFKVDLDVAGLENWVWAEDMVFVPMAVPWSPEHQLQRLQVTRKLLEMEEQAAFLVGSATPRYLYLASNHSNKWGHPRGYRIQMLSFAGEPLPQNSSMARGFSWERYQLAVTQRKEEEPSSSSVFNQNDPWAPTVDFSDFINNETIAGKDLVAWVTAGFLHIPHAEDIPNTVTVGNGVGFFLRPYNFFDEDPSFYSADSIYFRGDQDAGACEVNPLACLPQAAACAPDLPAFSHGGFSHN

[7] = test system: panel of 14 common transporters; type: in vitro ADME, human; settings: 30 µM; 14 targets screened
[8] = test system: panel of 68 enzymes, receptors, ion channels and transporters; settings: 10 µM; 68 targets screened
HepG2 cells = type: cell-based; settings: tested up to 100 μM in HepG2 cells
MPO [9] = molecular target: T1, MPO; assay: MPO chlorination assay; type: biochemical
[10] = for drug concentration in peritoneal lavage fluid: 5 h after gavage
MPO [11] = molecular target: T1, MPO; assay: MPO partition ratio assay; type: biochemical; settings: mean ± SEM, n = 3; MPO 60 nM, 2 μM H2O2
LOX, human = LOX, human (Homo sapiens, UniProt P28300); assay: LOX activity assay; type: biochemical; settings: compared to MPO or VAP-1
Chain of LOX, human (P28300 169-417): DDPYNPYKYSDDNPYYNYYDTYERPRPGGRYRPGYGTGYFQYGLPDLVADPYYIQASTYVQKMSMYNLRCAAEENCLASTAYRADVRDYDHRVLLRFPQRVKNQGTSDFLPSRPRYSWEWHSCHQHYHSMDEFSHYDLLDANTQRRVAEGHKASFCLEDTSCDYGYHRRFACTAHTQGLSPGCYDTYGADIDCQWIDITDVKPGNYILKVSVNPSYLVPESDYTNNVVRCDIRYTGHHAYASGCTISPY

MPO [12] = molecular target: MPO (Mus musculus, UniProt P11247); assay: Acute peritonitis; type: in vivo; settings: for reduction of peritoneal MPO activity: oral 60 mg/kg; for effect on lavage fluid MPO protein concentration (ELISA): thioglycolate broth/zymosan A-treated mice
Chain of MPO (Mus musculus, UniProt P11247) (P11247 139-718): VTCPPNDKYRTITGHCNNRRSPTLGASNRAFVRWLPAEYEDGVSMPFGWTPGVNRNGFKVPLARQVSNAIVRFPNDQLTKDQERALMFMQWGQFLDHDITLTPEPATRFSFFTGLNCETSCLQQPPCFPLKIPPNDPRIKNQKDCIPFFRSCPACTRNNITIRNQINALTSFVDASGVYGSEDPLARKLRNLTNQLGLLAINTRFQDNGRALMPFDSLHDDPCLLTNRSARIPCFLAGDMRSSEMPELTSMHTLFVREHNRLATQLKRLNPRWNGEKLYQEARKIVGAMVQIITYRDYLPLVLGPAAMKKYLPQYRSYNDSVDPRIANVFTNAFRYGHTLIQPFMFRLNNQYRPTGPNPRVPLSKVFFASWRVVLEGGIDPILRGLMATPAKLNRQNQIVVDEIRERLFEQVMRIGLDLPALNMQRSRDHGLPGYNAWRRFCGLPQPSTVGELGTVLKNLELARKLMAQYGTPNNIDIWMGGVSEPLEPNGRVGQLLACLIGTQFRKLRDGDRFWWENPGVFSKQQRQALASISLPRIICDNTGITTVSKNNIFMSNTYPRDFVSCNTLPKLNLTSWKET

VAP-1 = VAP-1 (Mus musculus, UniProt O70423); assay: VAP-1 activity in adipose tissue; type: in vivo; settings: 6 h; oral SNT-8370 60 mg/kg, PXS-4707 6 mg/kg
Chain of VAP-1 (O70423 whole entry): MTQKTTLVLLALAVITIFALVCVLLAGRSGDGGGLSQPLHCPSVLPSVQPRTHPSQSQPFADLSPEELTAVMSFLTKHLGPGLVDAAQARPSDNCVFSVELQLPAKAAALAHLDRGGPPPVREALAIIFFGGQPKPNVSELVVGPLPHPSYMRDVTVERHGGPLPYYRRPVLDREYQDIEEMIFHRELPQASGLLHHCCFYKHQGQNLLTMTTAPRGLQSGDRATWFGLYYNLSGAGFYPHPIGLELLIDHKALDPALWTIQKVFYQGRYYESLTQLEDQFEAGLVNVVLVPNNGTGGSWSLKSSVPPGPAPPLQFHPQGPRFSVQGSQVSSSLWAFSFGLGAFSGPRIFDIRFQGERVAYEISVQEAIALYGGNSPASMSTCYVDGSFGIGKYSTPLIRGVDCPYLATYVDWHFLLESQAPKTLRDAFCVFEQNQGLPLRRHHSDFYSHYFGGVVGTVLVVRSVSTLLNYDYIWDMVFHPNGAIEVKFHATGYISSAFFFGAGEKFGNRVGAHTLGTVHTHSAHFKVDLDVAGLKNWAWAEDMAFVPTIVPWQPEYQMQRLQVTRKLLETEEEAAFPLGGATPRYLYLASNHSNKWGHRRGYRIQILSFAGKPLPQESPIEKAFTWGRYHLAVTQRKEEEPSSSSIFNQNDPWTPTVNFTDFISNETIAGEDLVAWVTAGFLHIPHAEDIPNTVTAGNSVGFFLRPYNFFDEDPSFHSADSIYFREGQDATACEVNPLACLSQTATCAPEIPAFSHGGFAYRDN

[13] = SNT-8370 30, verdiperstat 15, PXS-4707 6, dexamethasone 10 mg/kg

T1 sequence (P05164 279-745): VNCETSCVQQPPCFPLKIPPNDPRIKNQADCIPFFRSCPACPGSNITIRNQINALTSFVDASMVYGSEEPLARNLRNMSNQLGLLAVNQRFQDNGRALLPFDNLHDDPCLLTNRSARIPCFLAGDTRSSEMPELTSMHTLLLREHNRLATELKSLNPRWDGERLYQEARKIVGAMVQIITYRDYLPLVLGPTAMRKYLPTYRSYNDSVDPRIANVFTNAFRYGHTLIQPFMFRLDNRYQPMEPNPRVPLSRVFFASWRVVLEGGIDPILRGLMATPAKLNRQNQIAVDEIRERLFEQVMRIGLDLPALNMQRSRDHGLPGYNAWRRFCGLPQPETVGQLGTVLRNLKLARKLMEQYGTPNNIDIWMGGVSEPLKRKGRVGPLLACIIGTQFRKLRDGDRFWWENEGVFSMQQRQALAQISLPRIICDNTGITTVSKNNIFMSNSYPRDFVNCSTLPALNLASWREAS
T1 sequence (P05164 165-273): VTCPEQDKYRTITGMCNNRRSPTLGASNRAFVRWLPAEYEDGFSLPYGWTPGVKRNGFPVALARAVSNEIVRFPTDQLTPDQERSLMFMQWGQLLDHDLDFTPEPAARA
Chain of native human MPO (P05164 279-745): as the sequence (P05164 279-745) above
Chain of native human MPO (P05164 165-273): as the sequence (P05164 165-273) above

## NC/C(=C\F)COc1cccc(Cn2c(=S)[nH]c(=O)c3[nH]cnc32)c1 [SNT-8370, (E)-3-(3-((2-(aminomethyl)-3-fluoroallyl)oxy)benzyl)-2-thioxo-1,2,3,7-tetrahydro-6H-purin-6-one]
MPO [1]
  fold lower IC50 than verdiperstat or PF06282999, H2O2 consumption: 5-8 fold
Native human MPO
  MPO IC50 more potent than AZD5904: ~ 3 fold
  MPO IC50 more potent than verdiperstat: ~ 2 fold
MAO-A, human
  selectivity index over MAO-A: > 1000 fold
Human DAO
  Substrate turnover, DAO: no turnover observed
In vivo; C57Bl/6J, in vivo, po
  half-life: 2 to 4 h
In vivo
  time of highest drug concentrations after oral gavage: 1 h
In vivo; oral gavage
  drug in the brain: No drug was detectable
[2]
  neutrophils in the peritoneum: significantly reduced
  total immune cells (leucocytes) in the peritoneum: significantly reduced
[3]; SNT-8370 10 mg/kg
  air pouch exudate volume at 12-h: significantly reduced
[3]; [13]
  air pouch exudate volume at 12-h: significantly reduced
[3]
  leucocyte influx into the air pouch at 4-h: significantly reduced
[4]
  lung infiltration of neutrophils (BALF): significantly reduced
  lung infiltration of total leucocytes (BALF): significantly reduced
[5]
  cardiac fibrosis (picrosirius red, Masson's trichrome, periostin): significantly reduce
  ejection fraction post-MI: prevented the significant post-MI reduction
  fractional shortening post-MI: prevented the significant post-MI reduction
MPO [6]
  IC50: 20 nM
  fold lower IC50 than verdiperstat, LDL lipid peroxidation: 30 fold
Recombinant human VAP-1
  Substrate turnover, VAP-1: No oxidative turnover
[7]
  Eurofins Transporter screen, hits (>50% inhibition): no significant inhibition
[8]
  Eurofins PanLabs screen, hits (>50% inhibition): No significant off-targets
HepG2 cells
  Cell health (cytotoxicity): no toxicity
MPO [9]
  fold lower IC50 than verdiperstat or PF06282999, HOCl production: 2–5 fold
[10]; oral 10 mg/kg
  drug concentration in peritoneal lavage fluid: 1.1 ng/mL
[10]; oral 30 mg/kg
  drug concentration in peritoneal lavage fluid: 1.5 ng/mL
[10]; oral 60 mg/kg
  drug concentration in peritoneal lavage fluid, molar equivalent: 170 nM
  drug concentration in peritoneal lavage fluid: ~ 60 ng/mL
[10]; oral 10 and 30 mg/kg
  drug concentration in peritoneal lavage fluid, molar equivalent: < 4 nM
MPO [11]
  partition ratio for MPO inhibition: 15.7 ± 2.4
LOX, human
  selectivity index over LOX: > 1000 fold
MPO [12]; oral 10 mg/kg
  effect on peritoneal MPO activity: no effect
MPO [12]; oral 30 mg/kg
  effect on peritoneal MPO activity: no effect
MPO [12]
  reduction of peritoneal MPO activity: > 50%
  effect on lavage fluid MPO protein concentration (ELISA): no effect
VAP-1
  inhibition of in vivo VAP-1 activity in adipose tissue: > 90%

## CC(C)OCCn1c(=S)[nH]c(=O)c2[nH]ccc21 [Verdiperstat, reference compound]
[2]
  neutrophils in the peritoneum: Neither of the monotherapy treatments showed a significant effect
  total immune cells (leucocytes) in the peritoneum: Neither of the monotherapy treatments showed a significant effect
[3]; [13]
  air pouch exudate volume at 12-h: neither verdiperstat nor PXS-4707, significantly reduced
[3]
  leucocyte influx into the air pouch at 4-h: significantly reduced
[4]
  lung infiltration of neutrophils (BALF): non-significant downward trends
  lung infiltration of total leucocytes (BALF): non-significant downward trends
MPO [6]
  IC50: 600 nM
[10]; oral 60 mg/kg
  drug concentration in peritoneal lavage fluid: > 10 ng/mL
MPO [12]
  reduction of peritoneal MPO activity: > 50%
  effect on lavage fluid MPO protein concentration (ELISA): no effect

## C[C@@H]1C[C@H]2[C@@H]3CCC4=CC(=O)C=C[C@]4(C)[C@@]3(F)[C@@H](O)C[C@]2(C)[C@@]1(O)C(=O)CO [dexamethasone]
[3]; [13]
  air pouch exudate volume at 12-h: significantly reduced
[3]
  leucocyte influx into the air pouch at 4-h: significantly reduced
